Several values for one entry are separate records, joined by “and”; a condition that tells them apart may be missing. Identical values can stand only once. Entries after “also recorded” stand apart in the source; their conditions may differ. Like-named read-outs stand apart in the source and are kept apart here.
What was measured:
[1] = tested on: Chinese hamster ovary (CHO) cells; test: In vitro chemotherapeutic activity, colony forming assay, CHO cells; type: cell-based; details: at the 50% survival level; 37° C. for 24 hours
Experimental: (§1) 4.1. In vitro chemotherapeutic activity. Chinese hamster ovary (CHO) and human colon carcinoma (HCT-116) cells were treated with different concentrations of taxol, taxoltere metro, or taxoltere p-nip at 37° C. for 24 hours. Cell survival was evaluated by the colony forming assay.

[2] = tested on: human colon carcinoma (HCT-116) cells; test: In vitro chemotherapeutic activity, colony forming assay, HCT-116 cells; type: cell-based; details: at the 1% survival level; 37° C. for 24 hours
Experimental: as §1

CHO cells = test: In vitro chemotherapeutic radiosensitization, CHO cells; type: cell-based, Chinese hamster; details: for sensitizer enhancement ratio (SER): irradiated after two hours incubation; for radiosensitization of CHO cells (in words): different radiation doses
HCT-116 cells = test: In vitro chemotherapeutic radiosensitization, HCT-116 cells; type: cell-based, human; details: for sensitizer enhancement ratio (SER): irradiated after two hours incubation; for radiosensitization of HCT-116 cells (in words): different radiation doses
[3] = tested on: mouse mammary adenocarcinoma (MTG-B); test: In vivo chemotherapeutic activity in MTG-B tumor bearing mice; parameters: species or system C3H/Hej mice
MTG-B tumor = type: in vivo, C3H/Hej mice
C3H/HeJ mice [4] = test: In vivo drug toxicity (acute toxicity); details: for LD50/5: C3H/HeJ mice
C3H/HeJ mice [5] = details: mouse, in vivo
[6] = In vivo drug toxicity (acute toxicity); details: C3H/HeJ, mouse, in vivo, ip
MTG-B mammary tumors = tested on: MTG-B mammary tumors; parameters: species or system mice; details: mouse, in vivo, ip

| Compound | times more effective than taxol in killing CHO cells [1] | times more effective than taxol in killing HCT-116 cells [2] | radiosensitization of CHO cells (in words) (CHO cells) | radiosensitization of HCT-116 cells (in words) (HCT-116 cells) | increase of survival time / life span ([3]; mouse, in vivo) [%] | survival time ([3]; mouse, in vivo) [days] | times more effective than taxol under equitoxic conditions ([3]; mouse, in vivo) [times] | tumor doubling times (in words) ([3]; mouse, in vivo) | tumor doubling time (TDT) (MTG-B tumor; mouse, in vivo, ip) | LD50/5 (C3H/HeJ mice [4]; i.p.) [mg/kg] | further results |
| --- | --- | --- | --- | --- | --- | --- | --- | --- | --- | --- | --- |
| N-debenzoyl-N-(t-butylcarbamoyl)-7-(metronidazoleoxycarbonyl) taxol [taxoltere metro] | about 15 times | about 10 times | strongly radiosensitize | strongly radiosensitize | 123 | 29 | 4 | again greatly extended | 20.5 days and 29.5 days | 249.67 | sensitizer enhancement ratio (SER) (CHO cells; 100 nM): 2.3; sensitizer enhancement ratio (SER) (HCT-116 cells; 10 nM): 1.2; Severe toxic symptoms (constriction of pupils, rough hair) (C3H/HeJ mice [4]; 24 hours after drug administration, high drug dose levels): not |
| CC(=O)O[C@H]1C(=O)[C@@]2(C)[C@H]([C@H](OC(=O)c3ccccc3)[C@]3(O)C[C@H](OC(=O)[C@H](O)[C@@H](NC(=O)c4ccccc4)c4ccccc4)C(C)=C1C3(C)C)[C@]1(OC(C)=O)CO[C@@H]1C[C@@H]2O [taxol, reference compound] | – | – | does not | does not | – | – | – | – | – | – | survival time ([3]; 40% of the LD50/5 dose, MTG-B tumor-bearing mice, control 13 days): 17 days; increase of survival time / life span ([3]; 40% of the LD50/5 dose, versus control 13 days): 31%; tumor doubling time (TDT) (MTG-B tumor; single dose i.p., 40% of LD50/5, drug alone, control 3.5 days): 14.5 days; tumor doubling time (TDT) (MTG-B tumor; single dose i.p., 40% of LD50/5, plus 22 Gy Xray one day later, 22 Gy alone 8.5 days): 19.5 days; Severe toxic symptoms (constriction of pupils, rough hair) (C3H/HeJ mice [5]): observed; LD50 at 5 days [6]: 141 mg/kg |
| N-debenzoyl-N-(t-butylcarbamoyl)-3′-desphenyl-3′-(4-nitrophenyl) taxol [taxoltere p-nip] | about 45 times | about 30 times | strongly radiosensitize | strongly radiosensitize | 1015 | 145 | 33 | even further extended; also recorded: again greatly extended | 36.5 days and 65 days | 79.13 | sensitizer enhancement ratio (SER) (CHO cells; concentration not given): 1.6; sensitizer enhancement ratio (SER) (HCT-116 cells; concentration not given): 1.5; tumor doubling time (MTG-B tumor; mouse, in vivo, iv): 52 days; cure rate (MTG-B mammary tumors): 40% and 75%; LD50/5 (C3H/HeJ mice [4]; i.v.): 134.16 mg/kg |

— patent US7067552B2, “Radiosensitizing taxanes and their pharmaceutical preparations” (Florida State University, priority 1995, dated 2006)
